Measurements reported in patent publication US10759783B2, “Biaryl inhibitors of Bruton'S tyrosine kinase” (BIOGEN MA INC., priority 2013, dated 2020).

Experiments:
[1] = target: T1, BTK enzyme (Homo sapiens, UniProt Q06187); test: In vitro BTK kinase assay: BTK-POLYGAT-LS assay; format: biochemical; details: ATP 10 μM, read-out: IC50 (10uMATP)
T1 construct: purchased Upstate 14-552
In short: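 Human BTK activity was measured with final 10 μM ATP and 100 nM polyGAT substrate in pH 7.5 Tris buffer with 10 mM MgCl2, DTT, Triton X-100 and casein.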

[2] = target: BTK (phospho-BTK) in human whole blood (Homo sapiens, UniProt Q06187); test: In vitro PD assay in human whole blood (pBTK assay)
Chain of BTK (phospho-BTK) in human whole blood (Q06187 whole entry): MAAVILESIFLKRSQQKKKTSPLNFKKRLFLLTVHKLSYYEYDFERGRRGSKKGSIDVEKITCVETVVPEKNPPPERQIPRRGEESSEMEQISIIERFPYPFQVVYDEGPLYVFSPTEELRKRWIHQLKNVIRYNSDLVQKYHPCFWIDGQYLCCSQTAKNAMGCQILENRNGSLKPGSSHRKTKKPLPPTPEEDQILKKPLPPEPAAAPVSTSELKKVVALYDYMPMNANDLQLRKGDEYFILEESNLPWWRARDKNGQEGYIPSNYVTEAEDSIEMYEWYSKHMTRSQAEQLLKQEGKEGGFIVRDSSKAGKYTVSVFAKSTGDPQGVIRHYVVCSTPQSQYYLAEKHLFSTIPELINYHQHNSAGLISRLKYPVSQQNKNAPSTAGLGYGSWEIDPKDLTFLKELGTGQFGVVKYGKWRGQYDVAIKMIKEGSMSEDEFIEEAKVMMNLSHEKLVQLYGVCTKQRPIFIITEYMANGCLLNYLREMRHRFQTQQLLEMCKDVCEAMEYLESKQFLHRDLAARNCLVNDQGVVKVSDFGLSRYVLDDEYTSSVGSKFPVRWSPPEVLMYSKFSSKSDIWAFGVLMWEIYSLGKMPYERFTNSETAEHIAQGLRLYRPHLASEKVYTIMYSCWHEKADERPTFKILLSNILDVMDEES

T1 sequence (Q06187 whole entry): as above

| SMILES | IC50 [1] [µM] | IC50 [2] [µM] |
| --- | --- | --- |
| CC(C)(C)OC1CN(C(=O)NC2CCCCc3cc(-c4ccnc(Nc5cnn(C6CCNCC6)c5)n4)ccc32)C1 (stereo not shown) [Example I-343, 3-tert-butoxy-N-[2-[2-[[1-(4-piperidyl)pyrazol-4-yl]amino]pyrimidin-4-yl]-6,7,8,9-tetrahydro-5H-benzo[7]annulen-5-yl]azetidine-1-carboxamide] | < 0.01 | < 0.5 |
| Cc1c(Nc2nccc(-c3ccc4c(c3)CCCCC4NC(=O)N3CC(OC(C)(C)C)C3)n2)cnn1C (stereo not shown) [Example I-347, 3-tert-butoxy-N-[2-[2-[(1,5-dimethylpyrazol-4-yl)amino]pyrimidin-4-yl]-6,7,8,9-tetrahydro-5H-benzo[7]annulen-5-yl]azetidine-1-carboxamide] | < 0.01 | < 0.5 |
| CC(C)OC1CN(C(=O)NC2CNCCc3cc(-c4ccnc(Nc5cnn(C)c5)n4)ccc32)C1 (stereo not shown) [Example I-352, 3-isopropoxy-N-[7-[2-[(1-methylpyrazol-4-yl)amino]pyrimidin-4-yl]-2,3,4,5-tetrahydro-1H-3-benzazepin-1-yl]azetidine-1-carboxamide] | 0.01 to 0.099 | < 0.5 |
| CN1CC(n2cc(Nc3nccc(-c4ccc(CNC(=O)c5cc(C(C)(C)C)on5)c(C(F)(F)F)c4)n3)cn2)C1 [Example I-355, 5-tert-butyl-N-[[4-[2-[[1-(1-methylazetidin-3-yl)pyrazol-4-yl]amino]pyrimidin-4-yl]-2-(trifluoromethyl)phenyl]methyl]isoxazole-3-carboxamide] | < 0.01 | < 0.5 |
| CN1CC(n2cc(Nc3nccc(-c4ccc(CNC(=O)c5cnn(C(C)(C)C)c5)c(Cl)c4)n3)cn2)C1 [Example I-356, 1-tert-butyl-N-[[2-chloro-4-[2-[[1-(1-methylazetidin-3-yl)pyrazol-4-yl]amino]pyrimidin-4-yl]phenyl]methyl]pyrazole-4-carboxamide] | < 0.01 | < 0.5 |
| Cc1cc(-c2cc(Nc3ccn([C@@H]4CCOC4)n3)ncn2)ccc1CNC(=O)c1cnc(C(C)(C)C)s1 [Example I-357, 2-tert-butyl-N-[[2-methyl-4-[6-[[1-[(3R)-tetrahydrofuran-3-yl]pyrazol-3-yl]amino]pyrimidin-4-yl]phenyl]methyl]thiazole-5-carboxamide] | < 0.01 | < 0.5 |
| Cc1cc(-c2cc(Nc3ccn(C4CCN(C)CC4)n3)ncn2)ccc1CNC(=O)c1cnc(C(C)(C)C)s1 [Example I-358, 2-tert-butyl-N-[[2-methyl-4-[6-[[1-(1-methyl-4-piperidyl)pyrazol-3-yl]amino]pyrimidin-4-yl]phenyl]methyl]thiazole-5-carboxamide] | < 0.01 | < 0.5 |
| Cn1cc(Nc2nccc(-c3ccc4c(c3)CCCC4NC(=O)N3CC(OC(C)(C)C)C3)n2)cn1 (stereo not shown) [Example I-359, 3-tert-butoxy-N-[6-[2-[(1-methylpyrazol-4-yl)amino]pyrimidin-4-yl]tetralin-1-yl]azetidine-1-carboxamide] | < 0.01 | < 0.5 |
| CCn1cc(Nc2nccc(-c3ccc(CNC(=O)N4CC(OC(C)C)C4)c(C)c3)n2)cn1 [Example I-360, N-[[4-[2-[(1-ethylpyrazol-4-yl)amino]pyrimidin-4-yl]-2-methyl-phenyl]methyl]-3-isopropoxy-azetidine-1-carboxamideacid] | < 0.01 | < 0.5 |

The next lines start with the values.

| IC50 [1] [µM] | IC50 [2] [µM] | SMILES |
| --- | --- | --- |
| < 0.01 | < 0.5 | CC(C)C1CCN(C(=O)NC2CCCCc3cc(-c4ccnc(Nc5cnn([C@@H]6CCOC6)c5)n4)ccc32)C1 (stereo partly drawn) [Example I-344, 3-isopropyl-N-[2-[2-[[1-[(3R)-tetrahydrofuran-3-yl]pyrazol-4-yl]amino]pyrimidin-4-yl]-6,7,8,9-tetrahydro-5H-benzo[7]annulen-5-yl]pyrrolidine-1-carboxamide] |
| < 0.01 | < 0.5 | CC(C)C1CCN(C(=O)NC2CCCCc3cc(-c4ccnc(Nc5cnn([C@H]6CCOC6)c5)n4)ccc32)C1 (stereo partly drawn) [Example I-345, 3-isopropyl-N-[2-[2-[[1-[(3S)-tetrahydrofuran-3-yl]pyrazol-4-yl]amino]pyrimidin-4-yl]-6,7,8,9-tetrahydro-5H-benzo[7]annulen-5-yl]pyrrolidine-1-carboxamide] |
| < 0.01 | < 0.5 | CC(C)OC1CN(C(=O)NC2CCN(CCO)Cc3cc(-c4ccnc(Nc5cnn(C)c5)n4)ccc32)C1 (stereo not shown) [Example I-346, N-[2-(2-hydroxyethyl)-8-[2-[(1-methylpyrazol-4-yl)amino]pyrimidin-4-yl]-1,3,4,5-tetrahydro-2-benzazepin-5-yl]-3-isopropoxy-azetidine-1-carboxamide] |
| < 0.01 | < 0.5 | CC(C)OC1CN(C(=O)NC2CCCCc3cc(-c4ccnc(Nc5cnn(C6CCN(C)CC6F)c5)n4)ccc32)C1 (stereo not shown) [Example I-348, N-[2-[2-[[1-(3-fluoro-1-methyl-4-piperidyl)pyrazol-4-yl]amino]pyrimidin-4-yl]-6,7,8,9-tetrahydro-5H-benzo[7]annulen-5-yl]-3-isopropoxy-azetidine-1-carboxamide] |
| < 0.01 | < 0.5 | CC(C)(C)CN1CCN(Cc2ccc(-c3ccnc(Nc4cnn(CCO)c4)n3)cc2C(F)(F)F)C(=O)C1 [Example I-350] |
| < 0.01 | < 0.5 | COCCn1cc(Nc2nccc(-c3ccc(CNC(=O)N4CC(OC(C)C)C4)c(C(F)(F)F)c3)n2)cn1 [Example I-351, 3-isopropoxy-N-[[4-[2-[[1-(2-methoxyethyl)pyrazol-4-yl]amino]pyrimidin-4-yl]-2-(trifluoromethyl)phenyl]methyl]azetidine-1-carboxamide] |
| < 0.01 | < 0.5 | CC(C)OC1CN(C(=O)NCc2ccc(-c3ccnc(Nc4cnn(C5CN(C)C5)c4)n3)cc2Cl)C1 [Example I-353, N-[[2-chloro-4-[2-[[1-(1-methylazetidin-3-yl)pyrazol-4-yl]amino]pyrimidin-4-yl]phenyl]methyl]-3-isopropoxy-azetidine-1-carboxamide] |
| < 0.01 | < 0.5 | CN1CC(n2cc(Nc3nccc(-c4ccc(CNC(=O)c5cc(C(C)(C)C)on5)c(Cl)c4)n3)cn2)C1 [Example I-354, 5-tert-butyl-N-[[2-chloro-4-[2-[[1-(1-methylazetidin-3-yl)pyrazol-4-yl]amino]pyrimidin-4-yl]phenyl]methyl]isoxazole-3-carboxamide] |
